Laboratory results from paper PMC5290001 (Clinical cancer research : an official journal of the …, 2016).
“And” between values parts separate entries of the source, which are not always exact repeats. Equal values may be shown once. Read-outs that look alike come from different tables or passages of the source.

Legend:
[1] = Temozolomide plasma pharmacokinetics; assay type: in vivo, human
[2] = Phase 1 dose escalation: toxicity; assay type: in vivo, human
AML = conditions: cited from earlier work; for Response rate: temozolomide 200 mg/m^2/day x 7 days, adults ≥ 60 years
[3] = Veliparib plasma pharmacokinetics; assay type: in vivo, human; conditions: for half-life: human, plasma, oral
[4] = tested on: Ser139-phospho-H2AX (γH2AX); experiment: H2AX phosphorylation in viable peripheral blood cells and CD34+ subset; assay type: in vivo, human
[5] = temozolomide 200 mg/m^2/day alone (day 3), veliparib dose 20–200 mg
[6] = veliparib 200 mg, administered alone
[7] = single dose of veliparib, 6 hours, relative to pretreatment, DL5/DL6

## Cn1nnc2c(C(N)=O)ncn2c1=O [Temozolomide, temozolomide]
[1]; human, plasma, oral, Cmax, temozolomide 200 mg/m^2/day in combination with veliparib 20–200 mg (day 8)
  Cmax: 12000 ± 3800 ng/mL
[1]; human, plasma, oral, t1/2, temozolomide 200 mg/m^2/day in combination with veliparib 20–200 mg (day 8)
  half-life: 114 ± 24 min
[1]; human, plasma, oral, tmax (median), temozolomide 200 mg/m^2/day in combination with veliparib 20–200 mg (day 8)
  Tmax: 1 h
[1]; [5]
  Cl/F, Obs.: 9.2 ± 3.2 L/h
  V/F, Obs.: 25 ± 9.1 L
[1]; temozolomide 200 mg/m^2/day in combination with veliparib 20–200 mg (day 8)
  V/F: 28±10 (25) L
[2]; for 7 days, with veliparib 150 mg twice a day
  Temozolomide dose at the MTD / RP2D: 200 mg/m^2/day
AML; MGMT+ cases
  Overall response rate: 6%
AML; MGMT− AMLs
  Overall response rate: 60%
AML; newly diagnosed AML or high-risk MDS with low MGMT expression
  Patients achieving a response: 53%
AML; newly diagnosed AML
  Response rate: 22%
AML; relapsed/refractory AML
  Response rate: 5%

## C[C@]1(c2nc3c(C(N)=O)cccc3[nH]2)CCCN1 [Veliparib, veliparib]
[2]; given with temozolomide 200 mg/m^2 daily for 7 days, veliparib for 9 days
  Maximum tolerated dose (MTD) / RP2D of veliparib: 150 mg twice daily
[3]; t1/2, veliparib 120 mg in combination with temozolomide 200 mg/m^2/day (day 8)
  half-life: 546 ± 480 min
[3]; t1/2, veliparib 150 mg in combination with temozolomide 200 mg/m^2/day (day 8)
  half-life: 318 ± 102 min
[3]; t1/2, veliparib 200 mg in combination with temozolomide 200 mg/m^2/day (day 8)
  half-life: 216 ± 168 min
[3]; veliparib 20 mg alone (day 1), temozolomide dose 150 or 200 mg/m^2/day
  V/F: 285 ± 175 L
[3]; veliparib 20 mg in combination with temozolomide 150 or 200 mg/m^2/day (day 8)
  V/F: 180±49 (3) L
[3]; veliparib 120 mg alone (day 1), temozolomide dose 200 mg/m^2/day
  V/F: 181±50 (10) L
[3]; veliparib 120 mg in combination with temozolomide 200 mg/m^2/day (day 8)
  V/F: 191±165 (8) L
[3]; veliparib 150 mg alone (day 1), temozolomide dose 200 mg/m^2/day
  V/F: 190±72 (16) L
[3]; veliparib 150 mg in combination with temozolomide 200 mg/m^2/day (day 8)
  V/F: 109±45 (10) L
[3]; veliparib 200 mg alone (day 1), temozolomide dose 200 mg/m^2/day
  V/F: 84±26 (4) L
[3]; veliparib 200 mg in combination with temozolomide 200 mg/m^2/day (day 8)
  V/F: 77±59 (3) L
[3]; [6]
  Increase in AUC at the highest administered dose: 1.4 fold
  Increase in Cmax at the highest administered dose: 2.5 fold
[4]; 1 patient with HI, day 1
  Increase in phospho-H2AX positive CD34+ cells: 2.3 fold
[4]; [7]
  Patients with increased H2AX phosphorylation in CD34+ subset: 8 of 12
  Patients with increased H2AX phosphorylation in PB cells: 4 of 12
[4]; two patients who achieved CR
  Increase in H2AX phosphorylation in PB cells: ≥ 2 fold
[4]; two patients who achieved CR, day 1, 6 hours post- versus pre-treatment
  Increase in phospho-H2AX positive CD34+ cells: 2.3 fold and 1.3 fold
